Three molecules from patent publication EP0214862A2, “Anti-tumour platinum complexes, their preparation and their use” (priority 1985, dated 1987) can be followed below.

The subject of data set [1] is L1210 cells. The data set can be described thus: Anti-tumour activity against L1210 leukemia inoculated intraperitoneally in mice (Experiment 1). The data set is classed as in vivo. As to conditions: L1210, CDF1 mice. How it is done:
In the following experiments, the test animals used were 8 to 9 week old female mice of the CDF1 strain, each weighing 20-25 g.
(§1) CDF1 mice were inoculated intraperitoneally with L1210 cells ([…]). […] Each drug was injected intraperitoneally on days 1 and 4 following tumour implantation. The number of mice in each test group was 6.
(§2) The increase in life span (ILS) was calculated as follows: • ILS% = [(St/Su) - 1] x 100 • in which: • St = weighted median number of days survival of treated mice; and • Su = weighted median number of days survival of untreated mice.

The test system of data set [2] is cisplatin-resistant L1210/CDDP cells. The data set can be described thus: Anti-tumour activity against cisplatin-resistant L1210/CDDP leukemia in mice (Experiment 2). The data set is classed as in vivo.
Text: (§3) In the following experiments, the test animals used were 8 to 9 week old female mice of the CDF1 strain, each weighing 20-25 g. The standard L1210 leukemia cells were supplied by Dr. T. Yamamoto of the Institute of Medical Science, University of Tokyo, Japan, whilst the cisplatin-resistant L1210 cell line (L1210/CDDP) was supplied by Dr. T. Tashiro of the Cancer Chemotherapy Centre, Japanese Foundation for Cancer Research, Tokyo, Japan.
as §1, §2
The procedures described in Experiment 1 were repeated exactly, except that the tumour cells were cisplatin-resistant L1210/CDDP cells.

Data set [3] deals with cisplatin-resistant L1210 cell line (L1210/CDDP). The data set can be described thus: In vitro sensitivity of the cisplatin-resistant cell line versus parent L1210. The data set is classed as cell-based, mouse. Particulars: L1210/CDDP relative to the parent L1210 cell line.
Text: as §3

Setting [4] is: Dose 5 mg/kg intraperitoneally on days 1 and 4.
Where [5] appears, read: Dose 10 mg/kg intraperitoneally on days 1 and 4.
Setting [6] is: Dose 20 mg/kg intraperitoneally on days 1 and 4.
[7] abbreviates: Dose 40 mg/kg intraperitoneally on days 1 and 4.
Setting [8] is: Dose 80 mg/kg intraperitoneally on days 1 and 4.
Where [9] appears, read: Dose 5 mg/kg intraperitoneally on days 1 and 4, CDF1 mice.
[10] abbreviates: Dose 0.625 mg/kg intraperitoneally on days 1 and 4.
[11] abbreviates: Dose 1.25 mg/kg intraperitoneally on days 1 and 4.
[12] abbreviates: Dose 2.5 mg/kg intraperitoneally on days 1 and 4.
Where [13] appears, read: Dose 2.5 mg/kg intraperitoneally on days 1 and 4, CDF1 mice.
[14] abbreviates: Dose 30 mg/kg intraperitoneally on days 1 and 4, CDF1 mice.
[15] abbreviates: Dose 60 mg/kg intraperitoneally on days 1 and 4, CDF1 mice.

`C1CCC2[NH][Pt-2]3([NH]C2C1)[O]C1=[N+](CCN1)[Pt-2]1([NH2+]C2CCCCC2[NH2+]1)[OH+]3` (stereo not drawn) [Example 1, Hydroxo(ethyleneurea-N,O)-bis(cis-(trans-(ℓ)-1,2-diaminocyclohexane)platinum (II)] nitrate]: the “Wt. Change (Change in body weight from day 1 to day 7)” value (from here on “Wt. Change”) in data set [1] (setting [4]) is “+2.6 g”; in data set [1] (setting [5]), “+2.8 g”; in data set [1] (setting [6]) it was “+2.2 g”; in data set [1] (setting [7]), “+0.4 g”; in data set [1] (setting [8]), “+0.2 g”; in data set [1] (Dose 160 mg/kg intraperitoneally on days 1 and 4) it was -3.0 g. Also, the “toxic (number of mice)” value in data set [1] (Dose 240 mg/kg intraperitoneally on days 1 and 4) is reported as “- (2/6, toxic)”; in data set [1] (Dose 320 mg/kg intraperitoneally on days 1 and 4), “- (5/6, toxic)”. The “Body weight change from days 1 to 7” value in data set [2] (setting [9]) was “+2.4”; in data set [2] (Dose 10 mg/kg intraperitoneally on days 1 and 4, CDF1 mice), “+2.3”; in data set [2] (Dose 20 mg/kg intraperitoneally on days 1 and 4, CDF1 mice), “+2.2”; in data set [2] (Dose 40 mg/kg intraperitoneally on days 1 and 4, CDF1 mice), -0.3; in data set [2] (Dose 80 mg/kg intraperitoneally on days 1 and 4, CDF1 mice) it was -0.5; in data set [2] (Dose 160 mg/kg intraperitoneally on days 1 and 4, CDF1 mice), -1.8.

Consider `N.N.[Cl][Pt][Cl]` [cisplatin], for which, in data set [1] (setting [10]), the “ILS (Increase in life span)” value turned out to be 8%, the “Med.S.T. (Median survival time)” value was found to be 9.1 days, the “Survivors on day 42” value is on record as 0/6 and the “Wt. Change” value was “+1.6 g”. For the same molecule, in data set [1] (setting [11]), the “ILS (Increase in life span)” value turned out to be 15%, the “Med.S.T. (Median survival time)” value was 9.7 days, the “Survivors on day 42” value is 0/6 and the “Wt. Change” value is “+2.5 g”. Further, in data set [1] (setting [12]), the “ILS (Increase in life span)” value is on record as 58%, the “Med.S.T. (Median survival time)” value came to 13.3 days, the “Survivors on day 42” value is listed as 0/6 and the “Wt. Change” value is listed as “+1.7 g”. Besides, in data set [1] (setting [4]), the “ILS (Increase in life span)” value was 364%, the “Med.S.T. (Median survival time)” value was determined as 39.0 days, the “Survivors on day 42” value is on record as 2/6 and the “Wt. Change” value is listed as -3.5 g. Further, in data set [1] (setting [5]), the “ILS (Increase in life span)” value turned out to be 23%, the “Med.S.T. (Median survival time)” value came to 10.3 days, the “Survivors on day 42” value is 0/6 and the “Wt. Change” value was -5.5 g. Besides, in data set [2] (setting [13]), the 30-day survivors is given as 0/5, the “Body weight change from days 1 to 7” value is listed as “+1.0”, the “ILS(%)” value was 2% and the Median survival days is on record as 9.3 days. Further, in data set [2] (setting [9]), the 30-day survivors is 0/6, the “Body weight change from days 1 to 7” value is recorded as -1.9, the “ILS(%)” value was 9% and the Median survival days was determined as 9.9 days. The “degree of cisplatin resistance in terms of in vitro sensitivity” value in data set [3] is 40 fold.

carboplatin: in data set [1] (setting [4]), the “ILS (Increase in life span)” value is 7%, the “Med.S.T. (Median survival time)” value amounted to 9.0 days, the “Survivors on day 42” value is listed as 0/6 and the “Wt. Change” value is on record as “+1.3 g”. Also, in data set [1] (setting [5]), the “ILS (Increase in life span)” value was found to be 7%, the “Med.S.T. (Median survival time)” value was 9.0 days, the “Survivors on day 42” value is on record as 0/6 and the “Wt. Change” value is given as “+2.0 g”. In data set [1] (setting [6]), the “ILS (Increase in life span)” value is listed as 7%, the “Med.S.T. (Median survival time)” value was 9.0 days, the “Survivors on day 42” value is 0/6 and the “Wt. Change” value was “+0.8 g”. Further, in data set [1] (setting [7]), the “ILS (Increase in life span)” value amounted to 10%, the “Med.S.T. (Median survival time)” value came to 9.2 days, the “Survivors on day 42” value is recorded as 0/6 and the “Wt. Change” value is reported as “+0.4 g”. In data set [1] (setting [8]), the “ILS (Increase in life span)” value was 23%, the “Med.S.T. (Median survival time)” value was determined as 10.3 days, the “Survivors on day 42” value is on record as 0/6 and the “Wt. Change” value is recorded as -0.5 g. In data set [2] (setting [14]), the 30-day survivors is reported as 0/6, the “Body weight change from days 1 to 7” value was “+1.2”, the “ILS(%)” value was 9% and the Median survival days is reported as 9.9 days. For the same molecule, in data set [2] (setting [15]), the 30-day survivors is 0/6, the “Body weight change from days 1 to 7” value is -0.6, the “ILS(%)” value is on record as 8% and the Median survival days is 9.8 days.
